Test results reported in patent US20240174744A1, “METHODS OF TREATMENT USING PROTEIN BINDERS TO IRHOM2 EPITOPES” (SCIRHOM GMBH, priority 2021, published 2024).

System: PMA-induced release of IL-6R from PBMCs from healthy donors
Test: ELISA-based IL-6R release assay, PBMCs from healthy donors
Assay type: cell-based
Details: Homo sapiens, PBMC; recombinant murine antibodies 1 μg/ml; Batimastat 10 μM; PMA 25 ng/ml, 6 hours
Method: In the following study, ELISA-based IL-6R release assays were performed to analyze the inhibitory effects of the antibodies of the present disclosure on PMA-induced release of endogenous IL-6R from primary human material obtained from healthy donors using peripheral blood mononuclear cells (PBMCs).
In brief, on day 1, Nunc black MaxiSorp® 96-well plates (Thermo Fisher Scientific, USA) were coated overnight with 100 μl per well of mouse anti-human IL-6R capture antibody (provided as part of the DuoSet ELISA kit) at 4 μg/ml TBS at 4° C. On day 2, the capture antibody solution was removed and MaxiSorp® plates were blocked with 300 μl per well of TBS, 1% BSA at room temperature for 3 hours. […] Using an infinite M1000 (Tecan Group, Switzerland) microplate reader, the fluorescence of each well was collected at an excitation wavelength of 435 nm and an emission wavelength of 555 nm.

Compound `CNC(=O)[C@H](Cc1ccccc1)NC(=O)[C@H](CC(C)C)[C@H](CSc1cccs1)C(=O)NO` [Batimastat] has an inhibition at 10 µM of 114%.
